From patent US9567329B2, “High penetration prodrug compositions of 1H-imidazo[4,5-c]quinolin-4-amines and 1H-imidazo[4,5-c]quinolin-4-amine-related compounds and uses thereof” (Techfields Pharma Co., Ltd, priority 2007, dated 2017)

Assays:
[1] = tested on: Human breast cancer cells (BCAP-37)
Excerpt: Human breast cancer cells (BCAP-37, 3-4 mm^3 of tumor tissue was used in each mouse) were subcutaneously xenografted into nude mice (BALB).

interferon production [2] = experiment: Interferon inducing activity in guinea pigs (serum protection of fibroblasts from mengovirus); assay type: in vivo; conditions: serum 18 hours after treatment
Protocol: Without being bound by any mechanism, the ability to induce interferon production of the pro-drugs of the invention was evaluated in guinea pigs (n=10). Untreated guinea pigs provided controls.
Each test drug was administered to real back skin of a guinea pig at a specific dose of about 0.5-4.5 mg/kg respectively.
Each treated and control guinea pig was bled 18 hours after drug treatment and its serum was assayed for interferon activity. The serum was diluted and incubated with guinea pig fibroblast cells at 37° C. overnight in 96 well microtiter plates. The incubated cells were then challenged with an inoculum of mengovirus that was sufficient to kill untreated cells in two days. Two days after such challenge, the cells were examined both microscopically and after staining with crystal violet to determine whether the cells remained intact.
Table 4 contains the results of the study with activity/ml indicating the highest dilute on of serum that protected cells from virus challenge. Untreated guinea pigs provided controls.

interferon production [3] = experiment: as above; assay type: in vivo; conditions: serum 18 hours after treatment; remark: listed apart in the source
[4] = Irritative effect or discomfort on skin of nude mice after topical application; assay type: in vivo; conditions: 0.1 ml of 3% in pH 7.4 phosphate buffer, back of nude mice, twice per day, 1 week
Protocol: Irritative effect or discomfort in the skin of mice of HPPs of 1H-imidazo[4,5-c]quinolin-4-amines or 1H-imidazo[4,5-c]quinolin-4-amine-related compounds was evaluated during a period of 1 week after the topical application of 0.1 ml of 3% of the respective test drug in pH 7.4 phosphate buffer (0.2 M) to the back of nude mice twice per day.

[5] = Conversion of HPPs to parent drugs in human plasma (half life); assay type: in vitro ADME; conditions: 37° C.
Protocol: HPPs of 1H-imidazo[4,5-c]quinolin-4-amines or 1H-imidazo[4,5-c]quinolin-4-amine-related compounds converted to the parent 1H-imidazo[4,5-c]quinolin-4-amines or 1H-imidazo[4,5-c]quinolin-4-amine-related compounds quickly in good yield in human plasma.
A HPP of 1H-imidazo[4,5-c]quinolin-4-amines or 1H-imidazo[4,5-c]quinolin-4-amine-related compound (0.05 mg) was dissolved in 0.1 ml of 0.2M pH 7.4 phosphate buffer. 1 ml of human plasma, preheated to 37° C., was added into the mixture. The mixture was kept in a water bath at 37° C., and at every 10 min intervals 0.2 ml of samples were withdrawn and added to 0.4 ml of methanol to precipitate the plasma protein. The samples were centrifuged for 5 min and analyzed by HPLC.

[6] = tested on: herpes simplex virus Type I; experiment: Anti-Herpes activity, treated for 3 days before HSV infection; assay type: in vivo; conditions: guinea pigs
Protocol: (§1) The evaluation of anti-Herpes activity of these prodrugs was carried out using the method described by Kern, et al. [Antimicrob. Agents Chemother. 14, 817, (1978)]. In each experiment, female guinea pigs (n=10) were anesthetized. […] Virus replication was monitored by determining the amount of virus recovered with vaginal swabs taken on day 7 after infection. […] The percent Lesion Inhibition was calculated as follows: 100-[(Sum of maximum lesion scores of treated group divided by the Sum of the scores of infected control)×100] (Table 5).

[7] = tested on: herpes simplex virus Type II; experiment: as above; assay type: in vivo; conditions: guinea pigs
Protocol: as §1

[8] = tested on: herpes simplex virus Type I; experiment: Anti-Herpes activity, treated for 5 days, first treatment 5 days after HSV infection; assay type: in vivo; conditions: guinea pigs
Protocol: (§2) The evaluation of anti-Herpes activity of these prodrugs was carried out using the method described by Kern, et al. [Antimicrob. Agents Chemother. 14, 817, (1978)].
(§3) In the third experiment, female guinea pigs (n=10) were anesthetized. The guinea pigs were then infected with herpes simplex virus (type I or Type II, about 10^5 plaque forming units were used) intravaginally using a cotton swab. […] External lesions were scored daily for ten days using the following scale: 0, no lesion; 1, redness and swelling; 2, a few small vesicles; 3, several large vesicles; 4, large ulcers and necrosis; and 5, paralysis. The percent Lesion Inhibition was calculated as follows: 100−[(Sum of maximum lesion scores of treated group divided by the Sum of the scores of infected control)×100] (Table 7).

[9] = tested on: herpes simplex virus Type II; experiment: as above; assay type: in vivo; conditions: guinea pigs
Protocol: as §2, §3

[10] = tested on: Human breast cancer cells (BCAP-37); experiment: Antitumor activity, breast cancer xenograft, topical treatment from day 1; conditions: 50 μl of 3% topically once per day from day 1; after 28 days
Excerpt: Human breast cancer cells (BCAP-37, 4-5 mm^3 of tumor tissue was used in each mouse) were subcutaneous xenografted into nude mice (BALB).

[11] = tested on: herpes simplex virus Type I; experiment: Anti-Herpes activity, treated for 5 days, first treatment just after HSV infection; assay type: in vivo; conditions: guinea pigs
Protocol: as §2
(§4) In the second experiment, female guinea pigs (n=10) were anesthetized. Herpes simplex virus (Type I or Type II, about 10^5 plaque forming units were used) was applied intravaginally to the guinea pigs using a cotton swab. […] Virus replication was monitored by determining the amount of virus recovered with vaginal swabs taken on day 7 after infection. External lesions were scored daily for ten days using the following scale: 0, no lesion; 1, redness and swelling; 2, a few small vesicles; 3, several large vesicles; 4, large ulcers and necrosis; and 5, paralysis. The percent Lesion Inhibition was calculated as follows: 100−[(Sum of maximum lesion scores of treated group divided by the Sum of the scores of infected control)×100] (Table 6).

[12] = tested on: herpes simplex virus Type II; experiment: as above; assay type: in vivo; conditions: guinea pigs
Protocol: as §2, §4

[13] = tested on: Human colon cancer cells (LS174J); experiment: Antitumor activity, colon cancer xenograft, topical treatment from day 1; conditions: 50 μl of 3% topically twice per day from day 1; after 28 days
Excerpt: Human colon cancer cells (LS174J, 4-5 mm^3 of tumor tissue was used in each mouse) were subcutaneously xenografted into nude mice (BALB).

[14] = In vitro penetration rate across human skin in modified Franz cells; assay type: in vitro ADME; conditions: 3% solution in ethanol/pH 7.4 phosphate buffer (0.2 M) 70/30
Protocol: Penetration rates of HPPs and their parent drugs through human skin were measured in vitro by modified Franz cells. A Franz cell had two chambers, the top sample chamber and the bottom receiving chamber. The human skin tissue (360-400 μm thick) that separated the top and the receiving chambers was isolated from the anterior or posterior thigh areas.
A compound tested (0.5 mL, 3% in a mixture of ethanol and phosphate buffer (0.2M, pH 7.4) (v/v, 70/30)) was added to the sample chamber of a Franz cell. The receiving chamber contains 2 ml of 2% bovine serum albumin in saline which was stirred at 600 rpm. The amount of the tested compound penetrating the skin was determined by high-performance liquid chromatography (HPLC) method.
The lowest detectable apparent flux values in this method was 1 μg/cm^2/h.

[15] = at day 42, treatment from day 21 (tumors 13±2 mm×12±3 mm), 50 μl of 3% topically once per day
[16] = 0.5 mg/kg once per day for 3 days before HSV infection
[17] = 1.5 mg/kg once per day for 3 days before HSV infection
[18] = 4.5 mg/kg once per day for 3 days before HSV infection
[19] = 0.5 mg/kg once per day for 5 days
[20] = 1.5 mg/kg once per day for 5 days
[21] = 4.5 mg/kg once per day for 5 days

Structure (SMILES): CNCC(=O)Nc1nc2ccccc2c2c1ncn2CC(C)C.Cl [sarcosine 1-isobutyl-1H-imidazo[4,5-c]quinolin-4-amide hydrochloride]
- tumor size, first dimension [1, 15]: 11±2 mm
- tumor size, second dimension [1, 15]: 10±2 mm
- death of mice ([1]; up to day 70, 50 μl of 3% topically once per day from day 21): none of mice died at day 70
- Interferon level of the HPP, transdermal (interferon production [2]; 0.5 mg/kg once): 8,676 activity/ml
- Interferon level of the HPP, transdermal (interferon production [2]; 1.5 mg/kg once): 16,784 activity/ml
- Interferon level of the HPP, transdermal (interferon production [2]; 4.5 mg/kg once): 57,235 activity/ml
- Interferon level of the HPP, intravaginal (interferon production [3]; 0.5 mg/kg once): 23,647 activity/ml
- Interferon level of the HPP, intravaginal (interferon production [3]; 1.5 mg/kg once): 56,735 activity/ml
- Interferon level of the HPP, intravaginal (interferon production [3]; 4.5 mg/kg once): 87,795 activity/ml
- signs of irritative effect or discomfort in the skin [4]: None of any signs of irritative effect or discomfort was observed
- Half life of HPPs in plasma [5]: 27 ± 1 min
- % Lesion inhibition of the HPP, intravaginal, Herpes type I [6, 16]: 71%
- % Lesion inhibition of the HPP, transdermal, Herpes type I [6, 16]: 45%
- % Lesion inhibition of the HPP, intravaginal, Herpes type I [6, 17]: 93%
- % Lesion inhibition of the HPP, transdermal, Herpes type I [6, 17]: 72%
- % Lesion inhibition of the HPP, intravaginal, Herpes type I [6, 18]: 95%
- % Lesion inhibition of the HPP, transdermal, Herpes type I [6, 18]: 91%
- % Lesion inhibition of the HPP, intravaginal, Herpes type II [7, 16]: 75%
- % Lesion inhibition of the HPP, transdermal, Herpes type II [7, 16]: 51%
- % Lesion inhibition of the HPP, intravaginal, Herpes type II [7, 17]: 90%
- % Lesion inhibition of the HPP, transdermal, Herpes type II [7, 17]: 73%
- % Lesion inhibition of the HPP, intravaginal, Herpes type II [7, 18]: 96%
- % Lesion inhibition of the HPP, transdermal, Herpes type II [7, 18]: 90%
- % Lesion inhibition of the HPP, intravaginal, Herpes type I [8, 19]: 37%
- % Lesion inhibition of the HPP, transdermal, Herpes type I [8, 19]: 37%
- % Lesion inhibition of the HPP, intravaginal, Herpes type I [8, 20]: 68%
- % Lesion inhibition of the HPP, transdermal, Herpes type I [8, 20]: 57%
- % Lesion inhibition of the HPP, intravaginal, Herpes type I [8, 21]: 88%
- % Lesion inhibition of the HPP, transdermal, Herpes type I [8, 21]: 89%
- % Lesion inhibition of the HPP, intravaginal, Herpes type II [9, 19]: 38%
- % Lesion inhibition of the HPP, transdermal, Herpes type II [9, 19]: 38%
- % Lesion inhibition of the HPP, intravaginal, Herpes type II [9, 20]: 70%
- % Lesion inhibition of the HPP, transdermal, Herpes type II [9, 20]: 58%
- % Lesion inhibition of the HPP, intravaginal, Herpes type II [9, 21]: 90%
- % Lesion inhibition of the HPP, transdermal, Herpes type II [9, 21]: 88%
- Tumor size, Human breast cancer, first dimension [10]: None
- tumor incidence, human breast cancer [10]: no tumor was seen
- % Lesion inhibition of the HPP, intravaginal, Herpes type I [11, 19]: 57%
- % Lesion inhibition of the HPP, transdermal, Herpes type I [11, 19]: 47%
- % Lesion inhibition of the HPP, intravaginal, Herpes type I [11, 20]: 87%
- % Lesion inhibition of the HPP, transdermal, Herpes type I [11, 20]: 77%
- % Lesion inhibition of the HPP, intravaginal, Herpes type I [11, 21]: 95%
- % Lesion inhibition of the HPP, transdermal, Herpes type I [11, 21]: 91%
- % Lesion inhibition of the HPP, intravaginal, Herpes type II [12, 19]: 56%
- % Lesion inhibition of the HPP, transdermal, Herpes type II [12, 19]: 49%
- % Lesion inhibition of the HPP, intravaginal, Herpes type II [12, 20]: 90%
- % Lesion inhibition of the HPP, transdermal, Herpes type II [12, 20]: 80%
- % Lesion inhibition of the HPP, intravaginal, Herpes type II [12, 21]: 96%
- % Lesion inhibition of the HPP, transdermal, Herpes type II [12, 21]: 93%
- Tumor size, Human colon cancer, first dimension [13]: None
- tumor incidence, human colon cancer [13]: no tumor was seen
- In vitro Penetration Rate of HPPs (apparent flux) [14]: 0.15 mg/cm^2/h
